Results as given in ChEMBL document CHEMBL4130577, “Platanic acid: A new scaffold for the synthesis of cytotoxic agents” (Eur J Med Chem, 2018).
Calls of active or inactive are those of the source. The rule behind the calls is not given here.

Key:
[1] = system: 518A2; assay: Cytotoxicity against human 518A2 cells after 96 hrs by SRB assay; format: functional, cell-based; settings: 518A2, 96 h
[2] = system: A2780; assay: Cytotoxicity against human A2780 cells after 96 hrs by SRB assay; format: functional, cell-based; settings: A2780, 96 h
[3] = system: MCF7; assay: Cytotoxicity against human MCF7 cells after 96 hrs by SRB assay; format: functional, cell-based; settings: MCF7, 96 h
[4] = system: A549; assay: Cytotoxicity against human A549 cells after 96 hrs by SRB assay; format: functional, cell-based; settings: A549, 96 h
[5] = system: NIH3T3; assay: Cytotoxicity against mouse NIH/3T3 cells after 96 hrs by SRB assay; format: cell-based; settings: NIH3T3, 96 h
[6] = system: A2780; assay: Cytotoxicity against human A2780 cells assessed as morphological changes at 8 uM after 24 hrs by acridine orange/propidium iodide staining based fluorescence microscopic method; format: functional, cell-based
[7] = system: A2780; assay: Induction of apoptosis in human A2780 cells assessed as early apoptotic cells at 8 uM after 24 hrs by Annexin V-FITC/propidium iodide staining based flow cytometry (reference value: 3.5%); format: functional
[8] = system: A2780; assay: Induction of apoptosis in human A2780 cells assessed as late apoptotic cells at 8 uM after 24 hrs by Annexin V-FITC/propidium iodide staining based flow cytometry (reference value: 6.6%); format: functional
[9] = system: A2780; assay: Induction of apoptosis in human A2780 cells assessed as necrotic cells at 8 uM after 24 hrs by Annexin V-FITC/propidium iodide staining based flow cytometry (reference value: 1.1%); format: functional
[10] = system: A2780; assay: Induction of apoptosis in human A2780 cells assessed as live cells at 8 uM after 24 hrs by Annexin V-FITC/propidium iodide staining based flow cytometry (reference value: 88.7%); format: functional
[11] = system: A2780; assay: Cell cycle arrest in human A2780 cells at 8 uM after 24 hrs by propidium iodide staining based flow cytometry; format: functional
[12] = system: A2780; assay: Induction of apoptosis in human A2780 cells assessed as increase in caspase-3 activity at 8 uM after 24 hrs by flow cytometry; format: functional, cell-based
[13] = system: HT-29; assay: cells; settings: Homo sapiens, HT-29, 96 h
Description: Cytotoxicity against human HT-29 cells after 96 hrs by SRB assay

[14] = system: A2780; assay: Cytotoxicity against human A2780 cells assessed as morphological changes at 5 uM after 24 hrs by acridine orange/propidium iodide staining based fluorescence microscopic method; format: functional, cell-based
[15] = system: A2780; assay: Induction of apoptosis in human A2780 cells assessed as early apoptotic cells at 5 uM after 24 hrs by Annexin V-FITC/propidium iodide staining based flow cytometry (reference value: 3.5%); format: functional
[16] = system: A2780; assay: Induction of apoptosis in human A2780 cells assessed as late apoptotic cells at 5 uM after 24 hrs by Annexin V-FITC/propidium iodide staining based flow cytometry (reference value: 6.6%); format: functional
[17] = system: A2780; assay: Induction of apoptosis in human A2780 cells assessed as necrotic cells at 5 uM after 24 hrs by Annexin V-FITC/propidium iodide staining based flow cytometry (reference value: 1.1%); format: functional
[18] = system: A2780; assay: Induction of apoptosis in human A2780 cells assessed as live cells at 5 uM after 24 hrs by Annexin V-FITC/propidium iodide staining based flow cytometry (reference value: 88.7%); format: functional
[19] = system: A2780; assay: Cell cycle arrest in human A2780 cells at 5 uM after 24 hrs by propidium iodide staining based flow cytometry; format: functional
[20] = system: A2780; assay: Induction of apoptosis in human A2780 cells assessed as increase in caspase-3 activity at 5 uM after 24 hrs by flow cytometry; format: functional, cell-based

| SMILES | EC50 [13] | EC50 [1] | EC50 [2] | EC50 [3] | EC50 [4] | EC50 [5] | Activity [6] | Activity [7] | Activity [8] | Activity [9] | Activity [10] | Activity [11] | Activity [12] | Activity [14] | Activity [15] | Activity [16] | Activity [17] | Activity [18] | Activity [19] | Activity [20] |
| --- | --- | --- | --- | --- | --- | --- | --- | --- | --- | --- | --- | --- | --- | --- | --- | --- | --- | --- | --- | --- |
| COC(=O)[C@]12CC[C@@H]([C@@H](C)N)[C@@H]1[C@H]1CC[C@@H]3[C@@]4(C)CC[C@H](OC(C)=O)C(C)(C)[C@@H]4CC[C@@]3(C)[C@]1(C)CC2 | 6.3 µM | 4.1 µM | 4.7 µM | 5.1 µM | 5.3 µM | 5.6 µM | Active | 23.7% | 16.6% | 1.4% | 58.1% | inactive | Active |  |  |  |  |  |  |  |
| CC(=O)O[C@H]1CC[C@]2(C)[C@H]3CC[C@@H]4[C@H]5[C@H]([C@@H](C)N)CC[C@]5(C(=O)OCc5ccccc5)CC[C@@]4(C)[C@]3(C)CC[C@H]2C1(C)C | 2.3 µM | 2.2 µM | 4 µM | 3 µM | 3.1 µM | 4.1 µM |  |  |  |  |  |  |  |  |  |  |  |  |  |  |
| CC(=O)[C@@H]1CC[C@]2(C(=O)OCc3ccccc3)CC[C@]3(C)[C@H](CC[C@@H]4[C@@]5(C)CC[C@@H](N)C(C)(C)[C@@H]5CC[C@]43C)[C@@H]12 | 2.4 µM | 2.3 µM | 2.8 µM | 1.9 µM | 3.6 µM | 2.5 µM |  |  |  |  |  |  |  |  |  |  |  |  |  |  |
| C[C@@H](N)[C@@H]1CC[C@]2(C(=O)OCc3ccccc3)CC[C@]3(C)[C@H](CC[C@@H]4[C@@]5(C)CC[C@H](O)C(C)(C)[C@@H]5CC[C@]43C)[C@@H]12 | 5 µM | 7.5 µM | 7.5 µM | 5.6 µM | 10.1 µM | 7.3 µM |  |  |  |  |  |  |  |  |  |  |  |  |  |  |
| CC(=O)O[C@H]1CC[C@]2(C)[C@H]3CC[C@@H]4[C@H]5[C@H]([C@@H](C)N)CC[C@]5(C(=O)O)CC[C@@]4(C)[C@]3(C)CC[C@H]2C1(C)C | 20.7 µM | 23.2 µM | > 30 µM | > 30 µM | > 30 µM | 27.2 µM |  |  |  |  |  |  |  |  |  |  |  |  |  |  |

Second part, led by results:

| EC50 [13] | SMILES | EC50 [1] | EC50 [2] | EC50 [3] | EC50 [4] | EC50 [5] | Activity [6] | Activity [7] | Activity [8] | Activity [9] | Activity [10] | Activity [11] | Activity [12] | Activity [14] | Activity [15] | Activity [16] | Activity [17] | Activity [18] | Activity [19] | Activity [20] |
| --- | --- | --- | --- | --- | --- | --- | --- | --- | --- | --- | --- | --- | --- | --- | --- | --- | --- | --- | --- | --- |
| 2.8 µM | CC(=O)[C@@H]1CC[C@]2(C(=O)NCCN3CCCC3)CC[C@]3(C)[C@H](CC[C@@H]4[C@@]5(C)CC[C@H](O)C(C)(C)[C@@H]5CC[C@]43C)[C@@H]12 | 2.5 µM | 2.2 µM | 2.1 µM | 2.3 µM | 2.8 µM |  |  |  |  |  |  |  | Active | 7.1% | 47.4% | 4.2% | 41.3% | inactive | Active |
| 18.7 µM | CC(=O)[C@@H]1CC[C@]2(N)CC[C@]3(C)[C@H](CC[C@@H]4[C@@]5(C)CC[C@H](O)C(C)(C)[C@@H]5CC[C@]43C)[C@@H]12 | > 30 µM | > 30 µM | > 30 µM | > 30 µM | 27.5 µM |  |  |  |  |  |  |  |  |  |  |  |  |  |  |
| 14.4 µM | COC(=O)[C@]12CC[C@@H](/C(C)=N/O)[C@@H]1[C@H]1CC[C@@H]3[C@@]4(C)CC[C@H](OC(C)=O)C(C)(C)[C@@H]4CC[C@@]3(C)[C@]1(C)CC2 | 7.8 µM | 12.2 µM | 12.4 µM | 8.2 µM | 14 µM |  |  |  |  |  |  |  |  |  |  |  |  |  |  |
